Test results published in US20260008768A1, “UREA DERIVATIVES FOR INHIBITING NLRP3 AND USES THEREOF” (VENTUS THERAPEUTICS U.S., INC., priority 2023, published 2026).

What follows are compounds tested against T1, human NLRP3 (Homo sapiens, UniProt Q96P20) (assay: Human PBMC NLRP3 Assay (LPS priming, ATP stimulation, cytokine measurement)). Details: Table B, activity class; human PBMC, LPS + ATP.
Assay type: cell-based
Parameters: host or cells: human PBMCs (A2); human whole blood from healthy volunteers (A3)
Description: Reagents: Human PBMCs (Normal): iXCells Cat #10HU-003; RPMI 1640 medium with GlutaMAX: ThermoFisher Cat #61870127 (Complete Media: 4.5 g/L D-glucose, 10% FBS, 100 mM NaPyr, 1% Pen/Strep, 10 mM HEPES and 0.05 mM of ®-mercaptoethanol; Assay Media: 4.5 g/L D-glucose, 100 mM NaPyr, 1% Pen/Strep, 10 mM HEPES and 0.05 mM of mercaptoethanol; 96-well V-bottom Plates: Costar Cat #3894; LPS (E. coli O26:B6): Sigma Cat #L2654, stock 5 mg/mL in PBS; ATP: Sigma Cat #A6419, prepared in a 250 mM stock in 1 M HEPES (adjusted to pH 7.4).
Cryopreserved PBMCs were rapidly thawed in a 37° C. water bath for 2 min. Cells were then centrifuged at 1200 RPM for 5 min and resuspended in ˜50 mL of fresh RPMI 1640 Complete Medium. A count was undertaken using a hemocytometer and adjusted to 2.5×10^5 cells/mL. V-shaped 96-well plates were seeded with 200 μL of PBMCs (5×10^4) per well and subsequently incubated overnight at 37° C. with 5% CO2. Assay Media was then prepared containing 100 ng/ml of LPS. PBMCs were then centrifuged at 1,200 RPM for 5 min, serum containing media was aspirated, and 150 μL/well of Assay Media+LPS was immediately added. Assay Media without LPS was added in the untreated control wells. Cells were then primed with LPS for 4 h at 37° C. with 5% CO2. A concentration response curve (CRC) was prepared of 1000× test compound in 100% DMSO. The CRC was then diluted 1:50 in Assay Media and then further diluted by 1:5× in Assay Media resulting in a final 4×CRC in 0.4% DMSO/Assay Media. 50 μL/well of 4× test compound CRC or vehicle (0.4% DMSO/Assay Media) was then transferred into each well and subsequently incubated for 30 min at 37° C. with 5% CO2. Cells were stimulated by adding 4 μL of 250 mM ATP, using a 250 mM stock prepared in 1 M Hepes without further dilution (for a final concentration of 5 mM), for 1 h at 37° C. with 5% CO2 Plates were then centrifuged at 1200 RPM for 5 min; and 50 μl of the media was transferred to a clean 96-well storage plate for cytokine measurements using the mesoscale platform, and stored at −80° C. until analyzed. Compounds were added 30 minutes before priming the cells with LPS when TNFα was required to be quantified in the cytokine panel to confirm selectivity.
PBMC NLRP3 IC50 assay results, as a measurement of cellular potency, are provided in Table B. “A” activity=<0.01 uM; “B” activity=0.01-0.1 uM; “C” activity=>0.1-0.5 uM; “D” activity=>0.5 uM.

T1 sequence (Q96P20 whole entry): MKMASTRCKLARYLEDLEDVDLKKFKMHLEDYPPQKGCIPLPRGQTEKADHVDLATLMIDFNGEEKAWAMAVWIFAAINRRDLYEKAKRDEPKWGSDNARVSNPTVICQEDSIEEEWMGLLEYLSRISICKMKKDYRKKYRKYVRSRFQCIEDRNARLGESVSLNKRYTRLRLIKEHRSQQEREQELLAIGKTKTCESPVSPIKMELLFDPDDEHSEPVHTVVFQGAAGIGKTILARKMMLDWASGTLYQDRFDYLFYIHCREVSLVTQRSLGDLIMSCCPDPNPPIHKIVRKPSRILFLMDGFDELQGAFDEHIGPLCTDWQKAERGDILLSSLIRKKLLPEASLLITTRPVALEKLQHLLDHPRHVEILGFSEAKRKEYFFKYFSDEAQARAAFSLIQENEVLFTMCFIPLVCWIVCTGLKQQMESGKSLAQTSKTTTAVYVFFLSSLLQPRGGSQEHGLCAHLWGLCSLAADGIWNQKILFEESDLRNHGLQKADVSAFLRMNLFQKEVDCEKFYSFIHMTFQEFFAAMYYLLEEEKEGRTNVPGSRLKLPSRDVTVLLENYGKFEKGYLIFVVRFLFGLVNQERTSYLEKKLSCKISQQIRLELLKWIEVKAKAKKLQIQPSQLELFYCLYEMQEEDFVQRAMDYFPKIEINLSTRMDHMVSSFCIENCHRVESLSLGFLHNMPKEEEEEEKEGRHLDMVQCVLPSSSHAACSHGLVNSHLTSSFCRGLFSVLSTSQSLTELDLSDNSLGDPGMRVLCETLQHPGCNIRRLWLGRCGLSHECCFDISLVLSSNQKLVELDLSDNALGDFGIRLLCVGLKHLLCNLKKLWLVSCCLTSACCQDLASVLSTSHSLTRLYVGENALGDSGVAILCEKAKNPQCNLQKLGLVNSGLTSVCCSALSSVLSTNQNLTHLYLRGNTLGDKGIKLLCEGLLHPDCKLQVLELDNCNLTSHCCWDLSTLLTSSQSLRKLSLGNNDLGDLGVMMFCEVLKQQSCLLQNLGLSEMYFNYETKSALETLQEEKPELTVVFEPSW

| Compound | IC50 [µM] |
| --- | --- |
| C[C@@H]1CCN(c2nnn[nH]2)C[C@H](NC(=O)N(C)c2ccc(Cl)cc2Cl)C1 (single isomer, unassigned) [7A*] | < 0.01 |
| CN(C(=O)N[C@@H]1CCCN(c2nnn[nH]2)C1)c1ccc(Cl)cc1F [Compound 66, (R)-3-(1-(1H-tetrazol-5-yl)piperidin-3-yl)-1-(4-chloro-2-fluorophenyl)-1-methylurea] | > 0.5 |

Same assay, conditions: Table C; human PBMC, LPS + ATP

| Compound | IC50 [µM] |
| --- | --- |
| C[C@@H]1CCN(c2nnn[nH]2)C[C@H](NC(=O)N(C)c2ccc(Cl)cc2Cl)C1 (single isomer, unassigned) [7A*] | 0.009 |
| CN(C(=O)N[C@@H]1CCN(c2nnn[nH]2)C1)c1ccc(Cl)cc1 (single isomer, unassigned) [Comparative Example A*, reference compound] | > 100 |
| CN(C(=O)N(C)[C@@H]1CCCN(c2nnn[nH]2)C1)c1ccc(Cl)cc1 [Comparative Example C2, (R)-1-(1-(1H-tetrazol-5-yl)piperidin-3-yl)-3-(4-chlorophenyl)-1,3-dimethylurea, reference compound] | 58.1 |
| CN(C(=O)N[C@@H]1CCCN(c2ccccc2)C1)c1ccc(Cl)cc1 [Comparative Example D1, (R)-1-(4-chlorophenyl)-1-methy1-3-(1-phenylpiperidin-3-yl)urea, reference compound] | 39.1 |
| CN(C(=O)N[C@H]1CCCN(c2ccccc2)C1)c1ccc(Cl)cc1 [Comparative Example D2, (S)-1-(4-chlorophenyl)-1-methyl-3-(1-phenylpiperidin-3-yl)urea, reference compound] | > 100 |
| CN(C(=O)N[C@@H]1CCCN(c2nnnn2C)C1)c1ccc(Cl)cc1 [Comparative Example F, (R)-1-(4-chlorophenyl)-1-methyl-3-(1-(1-methy1-1H-tetrazol-5-yl)piperidin-3-yl)urea, reference compound] | 15.5 |
| O=C(N[C@@H]1CCCN(c2nnn[nH]2)C1)c1ccc(Cl)cc1 [Comparative Example G, (R)-N-(1-(1H-tetrazol-5-yl)piperidin-3-yl)-4-chlorobenzamide, reference compound] | > 100 |
| O=C(N[C@@H]1CCCN(c2ccccc2)C1)c1ccc(Cl)cc1 [Comparative Example J1, (R)-4-chloro-N-(1-phenylpiperidin-3-yl)benzamide, reference compound] | > 100 |
| O=C(N[C@H]1CCCN(c2ccccc2)C1)c1ccc(Cl)cc1 [Comparative Example J2, (S)-4-chloro-N-(1-phenylpiperidin-3-yl)benzamide, reference compound] | > 100 |
| CN(C(=O)N[C@@H]1CCCN(c2nnn[nH]2)C1)c1ccc(Cl)cc1F [Compound 66, (R)-3-(1-(1H-tetrazol-5-yl)piperidin-3-yl)-1-(4-chloro-2-fluorophenyl)-1-methylurea] | 0.892 |

These compounds were tested against T1, human NLRP3 (assay: Scintillation Proximity (SPA) NLRP3 Assay, displacement of 3H-MCC950). Details: Table B, activity class; displacement of 3H-MCC950 from human NLRP3.
Assay type: binding
Procedure, shortened: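 Displacement of radioligand 3H-MCC950 (125 nM final) from 350 nM human NLRP3, read by scintillation proximity after 6 h equilibration with PVT beads. Buffer: 20 mM HEPES pH 7.5, 150 mM NaCl, 5 mM MgCl2, 100 μM ADP; compound preincubated 15 min, ligand 60 min, RT. IC50 from specific binding.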

| Compound | IC50 [µM] |
| --- | --- |
| C[C@@H]1CCN(c2nnn[nH]2)C[C@H](NC(=O)N(C)c2ccc(Cl)cc2Cl)C1 (single isomer, unassigned) [7A*] | < 1 |
| C[C@H]1C[C@H](NC(=O)N(C)c2c(F)cc(C3CC3)cc2F)[C@@H]2CC[C@H]1N2c1nnn[nH]1 (single isomer, unassigned) [60D*] | 1 to 10 |
| C[C@@H]1C[C@H](NC(=O)N(C)c2c(F)cc(OC(F)F)cc2F)[C@H]2CC[C@@H]1N2c1nnn[nH]1 (single isomer, unassigned) [61B*] | > 100 |
| C[C@H]1C[C@@H](NC(=O)N(C)c2c(F)cc(OC(F)F)cc2F)[C@@H]2CC[C@H]1N2c1nnn[nH]1 (single isomer, unassigned) [61C*] | > 100 |
| C[C@H]1C[C@H](NC(=O)N(C)c2c(F)cc(OC(F)F)cc2F)[C@@H]2CC[C@H]1N2c1nnn[nH]1 (single isomer, unassigned) [61D*] | 10 to 50 |
| C[C@@H]1C[C@H](NC(=O)N(C)c2c(F)cc(OC(F)(F)F)cc2F)[C@H]2CC[C@@H]1N2c1nnn[nH]1 (single isomer, unassigned) [62B*] | > 100 |
| C[C@H]1C[C@@H](NC(=O)N(C)c2c(F)cc(OC(F)(F)F)cc2F)[C@@H]2CC[C@H]1N2c1nnn[nH]1 (single isomer, unassigned) [62C*] | 50 to 100 |
| C[C@H]1C[C@H](NC(=O)N(C)c2c(F)cc(OC(F)(F)F)cc2F)[C@@H]2CC[C@H]1N2c1nnn[nH]1 (single isomer, unassigned) [62D*] | 50 to 100 |
| C[C@@H]1C[C@H](NC(=O)N(C)c2ccc(OC(F)(F)F)c(OC(F)F)c2)[C@H]2CC[C@@H]1N2c1nnn[nH]1 (single isomer, unassigned) [63B*] | > 100 |
| C[C@H]1C[C@@H](NC(=O)N(C)c2ccc(OC(F)(F)F)c(OC(F)F)c2)[C@@H]2CC[C@H]1N2c1nnn[nH]1 (single isomer, unassigned) [63C*] | 50 to 100 |
| C[C@H]1C[C@H](NC(=O)N(C)c2ccc(OC(F)(F)F)c(OC(F)F)c2)[C@@H]2CC[C@H]1N2c1nnn[nH]1 (single isomer, unassigned) [63D*] | 50 to 100 |
| C[C@@H]1C[C@H](NC(=O)N(C)c2ccc(OC(F)F)c(OC(F)F)c2)[C@H]2CC[C@@H]1N2c1nnn[nH]1 (single isomer, unassigned) [64B*] | > 100 |
| C[C@H]1C[C@@H](NC(=O)N(C)c2ccc(OC(F)F)c(OC(F)F)c2)[C@@H]2CC[C@H]1N2c1nnn[nH]1 (single isomer, unassigned) [64C*] | > 100 |
| C[C@H]1C[C@H](NC(=O)N(C)c2ccc(OC(F)F)c(OC(F)F)c2)[C@@H]2CC[C@H]1N2c1nnn[nH]1 (single isomer, unassigned) [64D*] | 1 to 10 |
| CCN(C(=O)N[C@H]1C[C@H](C)[C@H]2CC[C@@H]1N2c1nnn[nH]1)c1ccc(OC(F)F)cc1F (single isomer, unassigned) [65D*] | 10 to 50 |
| O=C(N[C@@H]1CCCN(c2nnn[nH]2)C1)N(c1ccc(Cl)cc1)C1CC1 [Compound 3A, (R)-3-(1-(1H-tetrazol-5-yl)piperidin-3-yl)-1-(4-chlorophenyl)-1-cyclopropylurea] | > 100 |
| C[C@H]1CCN(c2nnn[nH]2)C[C@@H](NC(=O)N(C)c2ccc(C(F)(F)F)c(F)c2)C1 [Compound 9D, 1-(3-fluoro-4-(trifluoromethyl)phenyl)-1-methyl-3-((3S,5S)-5-methyl-1-(1H-tetrazol-5-yl)azepan-3-yl)urea] | 1 to 10 |
| C[C@H]1C[C@@H](NC(=O)N(C)c2ccc3ocnc3c2)CN(c2nnn[nH]2)C1 [Compound 34A, 1-(benzo[d]oxazol-5-yl)-1-methyl-3-((3R,5S)-5-methyl-1-(1H-tetrazol-5-yl)piperidin-3-yl)urea] | 50 to 100 |
| C[C@H]1C[C@@H](NC(=O)N(C)c2ccc3ncoc3c2)CN(c2nnn[nH]2)C1 [Compound 35A, 1-(benzo[d]oxazol-6-yl)-1-methyl-3-((3R,5S)-5-methyl-1-(1H-tetrazol-5-yl)piperidin-3-yl)urea] | 10 to 50 |
| C[C@H]1C[C@@H](NC(=O)N(C)c2ccc3ccnn3c2)CN(c2nnn[nH]2)C1 [Compound 36A, 1-methyl-3-((3R,5S)-5-methyl-1-(1H-tetrazol-5-yl)piperidin-3-yl)-1-(pyrazolo[1,5-a]pyridin-6-yl)urea] | > 100 |
| C[C@H]1C[C@@H](NC(=O)N(C)c2ccc3nccn3c2)CN(c2nnn[nH]2)C1 [Compound 37A, 1-(imidazo[1,2-a]pyridin-6-yl)-1-methyl-3-((3R,5S)-5-methyl-1-(1H-tetrazol-5-yl)piperidin-3-yl)urea] | > 100 |
| C[C@H]1C[C@@H](NC(=O)N(C)c2ccc3cnoc3c2)CN(c2nnn[nH]2)C1 [Compound 38A, 1-(benzo[d]isoxazol-6-yl)-1-methyl-3-((3R,5S)-5-methyl-1-(1H-tetrazol-5-yl)piperidin-3-yl)urea] | 10 to 50 |
| C[C@H]1C[C@@H](NC(=O)N(C)c2ccc(OC(F)F)cc2)CN(c2nnn[nH]2)C1 [Compound 39A, 1-(4-(difluoromethoxy)phenyl)-1-methyl-3-((3R,5S)-5-methyl-1-(1H-tetrazol-5-yl)piperidin-3-yl)urea] | < 1 |

Same assay, conditions: Table C; displacement of 3H-MCC950 from human NLRP3

| Compound | IC50 [µM] |
| --- | --- |
| C[C@@H]1CCN(c2nnn[nH]2)C[C@H](NC(=O)N(C)c2ccc(Cl)cc2Cl)C1 (single isomer, unassigned) [7A*] | 0.24 |
| C[C@H]1C[C@@H](NC(=O)N(C)c2ccc(OC(F)F)cc2)CN(c2nnn[nH]2)C1 [Compound 39A, 1-(4-(difluoromethoxy)phenyl)-1-methyl-3-((3R,5S)-5-methyl-1-(1H-tetrazol-5-yl)piperidin-3-yl)urea] | 0.82 |
